Laboratory results: ChEMBL document CHEMBL1123906, “Folate analogues. 30. Synthesis and biological evaluation of N10-propargyl-5,8-dideaza-5,6,7,8-tetrahydrofolic acid and related compounds” (J Med Chem, 1987)

What was measured:
Lacticaseibacillus casei [1] = assay: Antimicrobial activity against Lactobacillus casei strain ATCC 7469; assay type: functional; set-up: unit not given here
Enterococcus faecium [2] = assay: Antimicrobial activity against Streptococcus faecium strain, MTX-resistant; assay type: functional; set-up: unit not given here
Thymidylate synthase [3] = target: T1, Thymidylate synthase (Lactobacillus casei, UniProt P00469); assay: Evaluated for the inhibition of thymidylate synthase in Lactobacillus casei; set-up: species or system Lacticaseibacillus casei
T1 sequence (P00469 whole entry): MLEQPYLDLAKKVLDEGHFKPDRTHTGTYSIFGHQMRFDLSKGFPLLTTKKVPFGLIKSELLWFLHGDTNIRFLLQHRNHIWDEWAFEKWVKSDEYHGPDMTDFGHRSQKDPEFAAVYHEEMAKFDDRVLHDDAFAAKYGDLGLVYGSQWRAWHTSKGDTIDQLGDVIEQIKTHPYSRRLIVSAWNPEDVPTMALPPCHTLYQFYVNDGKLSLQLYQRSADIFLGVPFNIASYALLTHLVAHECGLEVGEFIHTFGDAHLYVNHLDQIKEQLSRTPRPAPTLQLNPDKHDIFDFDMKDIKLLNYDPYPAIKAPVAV

Enterococcus faecium [4] = assay: Antimicrobial activity against Streptococcus faecium strain ATCC 8043; assay type: functional; set-up: unit not given here
Dihydrofolate reductase = Dihydrofolate reductase (Lactobacillus casei, UniProt P00381); assay: Evaluated for the inhibition of dihydrofolate reductase in Lactobacillus casei; set-up: species or system Lacticaseibacillus casei
Dihydrofolate reductase, sequence (P00381 whole entry): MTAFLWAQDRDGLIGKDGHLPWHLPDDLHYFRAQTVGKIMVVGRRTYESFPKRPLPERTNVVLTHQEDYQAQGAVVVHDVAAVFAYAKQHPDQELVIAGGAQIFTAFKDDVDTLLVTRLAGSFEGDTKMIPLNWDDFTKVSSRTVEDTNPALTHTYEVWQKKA

Lacticaseibacillus casei [5] = assay: Antimicrobial activity against Lactobacillus casei MTX-resistant strain; assay type: functional; set-up: unit not given here
[6] = target: T2, Dihydropteroate synthase (Escherichia coli K-12) (UniProt P0AC13); assay: Inhibition of E. uM; conditions: concentration not given here
T2 sequence (whole entry): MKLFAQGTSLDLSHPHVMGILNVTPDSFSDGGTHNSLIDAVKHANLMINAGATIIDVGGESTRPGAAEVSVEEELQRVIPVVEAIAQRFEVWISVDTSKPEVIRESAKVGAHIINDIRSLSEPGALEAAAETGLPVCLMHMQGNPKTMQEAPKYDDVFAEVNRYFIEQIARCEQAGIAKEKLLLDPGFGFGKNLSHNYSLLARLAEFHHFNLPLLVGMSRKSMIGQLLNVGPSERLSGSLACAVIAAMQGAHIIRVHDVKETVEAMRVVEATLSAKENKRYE

Thymidylate synthase [7] = target: T3, Thymidylate synthase (Mus musculus, UniProt P07607); assay: Evaluated for the inhibition of thymidylate synthase in permeabilised L1210 cells; assay type: cell-based
T3 sequence (P07607 whole entry): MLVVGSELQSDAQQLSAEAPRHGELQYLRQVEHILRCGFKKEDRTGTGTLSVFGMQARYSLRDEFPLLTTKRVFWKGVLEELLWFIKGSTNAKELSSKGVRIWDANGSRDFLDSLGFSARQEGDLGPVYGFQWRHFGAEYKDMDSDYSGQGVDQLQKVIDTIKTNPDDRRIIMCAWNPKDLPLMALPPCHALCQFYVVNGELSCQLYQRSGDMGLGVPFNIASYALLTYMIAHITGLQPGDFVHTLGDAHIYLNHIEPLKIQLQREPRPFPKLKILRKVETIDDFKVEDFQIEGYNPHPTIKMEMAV

Enterococcus faecium [8] = assay: Antimicrobial activity against Streptococcus faecium strain, ATCC 8043; assay type: functional
Thymidylate synthase [9] = target: T3, Thymidylate synthase; assay: Evaluated for the inhibition of thymidylate synthase in intact L1210 cells; assay type: cell-based
[10] = system: Thymidylate synthase (Bos taurus); assay: Inhibition of Calf thymus thymidylate synthase in the presence of 20 uM

inhibition [6] [%]	SMILES	Activity (Lacticaseibacillus casei [1])	Activity (Enterococcus faecium [2])	IC50 (Thymidylate synthase [3]) [µM]	Activity (Enterococcus faecium [4])	IC50 (Dihydrofolate reductase) [µM]	Activity (Lacticaseibacillus casei [5])	IC50 (Thymidylate synthase [7]) [µM]	Activity (Enterococcus faecium [8])	IC50 (Thymidylate synthase [9]) [µM]	inhibition [10] [%]
–	C#CCN(CC1CCc2nc(N)nc(O)c2C1)c1ccc(C(=O)O)cc1 (configuration not stated)	1000	14000	610	26	190	>20000	–	–	–	–
–	CN(CC1CCc2nc(N)nc(O)c2C1)c1ccc(C(=O)O)cc1 (configuration not stated)	15800	8200	> 200	5.2	> 200	>20000	–	–	–	–
1.3	Nc1nc(O)c2c(n1)CCC(CO)C2 (configuration not stated)	–	–	–	–	–	–	–	–	–	–
–	Nc1nc(O)c2c(n1)CCC(CNc1ccc(C(=O)O)cc1)C2 (configuration not stated)	>20000	>20000	> 200	400	> 200	–	–	–	–	–
–	Nc1nc(O)c2c(n1)CCC(CNc1ccc(C(=O)NC(CCC(=O)O)C(=O)O)cc1)C2 (configuration not stated)	7.5	900	> 280	–	30	>20000	12	140	1000	–
7	Nc1nc(O)c2c(n1)CCC(CBr)C2 (configuration not stated)	–	–	–	–	–	–	–	–	–	–
–	C#CCN(CC1CCc2nc(N)nc(O)c2C1)c1ccc(C(=O)NC(CCC(=O)O)C(=O)O)cc1 (configuration not stated)	4.7	350	23	–	10	>10000	11	1.8	1100	50
–	CN(CC1CCc2nc(N)[nH]c(=O)c2C1)c1ccc(C(=O)NC(CCC(=O)O)C(=O)O)cc1 (configuration not stated)	–	–	120	–	16	–	–	–	–	–
–	C#CCN(Cc1ccc2[nH]c(N)nc(=O)c2c1)c1ccc(C(=O)NC(CCC(=O)O)C(=O)O)cc1 (configuration not stated)	0.4	20	–	0.13	–	6400	–	–	–	–

SMILES	inhibition [6] [%]	Activity (Lacticaseibacillus casei [1])	Activity (Enterococcus faecium [2])	IC50 (Thymidylate synthase [3]) [µM]	Activity (Enterococcus faecium [4])	IC50 (Dihydrofolate reductase) [µM]	Activity (Lacticaseibacillus casei [5])	IC50 (Thymidylate synthase [7]) [µM]	Activity (Enterococcus faecium [8])	IC50 (Thymidylate synthase [9]) [µM]	inhibition [10] [%]
CN(CC1CCc2nc(N)nc(O)c2C1)c1ccc(C(=O)NC(CCC(=O)O)C(=O)O)cc1 (configuration not stated)	35.1	2.8	13	–	–	–	>20000	–	0.57	–	–
